Experimental findings from US9133179B2, “2-methoxy-pyridin-4-yl-derivatives” (Actelion Pharmaceuticals Ltd., priority 2011, dated 2015) are described below.

In series [1] the target is T1, human S1P1 (EDG1) receptor (Homo sapiens, UniProt P21453).
T1 construct: host or cells: U2OS (Tango EDG1-bla U2OS)
In words: S1P1 β-arrestin recruitment (Tango) assay to determine EC50 values. The following applies: Tango-EDG1 bla U2OS cells, 16 h incubation. Format: cell-based. The source says: S1P1 β-Arrestin Recruitment (Tango) Assay to Determine EC50 Values
Upon ligand activation, G protein-coupled receptors (GPCR) trigger two pathways that independently transduce signals to the cell: one through heterotrimeric GTP-binding proteins (G proteins) and one through β-arrestins. Agonist-induced GPCRs recruit β-arrestin proteins, which then bind to the carboxy-terminal domain of ligand-activated GPCRs. The amount of β-arrestin recruitment can be used to assess the potency and efficacy of GPCR activating ligands.
To measure the potency and efficacy of compounds as S1P1 (EDG1) receptor agonists, Tango™-EDG1 bla U2OS cells (Invitrogen, USA, Catalog #K1520) are used. The Tango™ GPCR technology is based on GeneBLAzer β-lactamase reporter cell assays, which uses a mammalian-optimized β-lactamase reporter gene (bla) combined with a FRET-enabled substrate. The host cells, U2OS, stably express a human S1P1 (EDG1) receptor/transcription factor (TF) fusion protein. The cells also express a recombinant protease tagged β-arrestin protein, which is recruited to the S1P1 receptor upon ligand stimulation and specifically cleaves the S1P1-TF fusion protein. The released TF activates the β-lactamase (bla) reporter gene. To measure the reporter gene activity, cells are loaded with a fluorescent substrate containing two chemically coupled fluorophores, coumarin and fluorescein. […] In the presence of bla, the chemical bond is cleaved and FRET is inhibited. […] The amount of β-arrestin recruitment is proportional to the increase in blue fluorescence.
Tango™-EDG1 bla U2OS cells are cultivated in McCoy's 5A containing 10% dialyzed FBS, 0.1 mM NEAA, 25 mM HEPES, 1 mM sodium pyruvate, 1% Penicillin/Streptomycin, 200 μg/ml zeocin, 50 μg/ml hygromycin and 100 μg/ml geneticin (Invitrogen, USA). Cells are detached with trypsin, resuspended in medium and then counted.
Compounds (10 mM stock in DMSO) are diluted first in DMSO. The pre-diluted compounds solutions are then transferred into Assay Medium/0.1% fatty acid free BSA to reach a fourfold concentrated compound stock, which is applied to the cells to reach the final compound concentrations that range from 10 μM to 0.0005 nM (0.5% final DMSO). Cells are then incubated for 16 h at 37° C. and 5% CO2.
A general note: Arrestin recruitment assays detect the binding of arrestin to an activated receptor.

A further series deals with circulating lymphocytes. In words: Assessment of in vivo efficacy: circulating lymphocytes after oral administration to Wistar rats. Also noted: species or system rat. The following applies: Rattus norvegicus, Lymphocyte; 6 h after oral administration of 10 mg/kg, normotensive male Wistar rats, compared to vehicle group; read-out: Lymphocyte counts. The method, then:
Assessment of In Vivo Efficacy
The efficacy of the compounds of Formula (I) is assessed by measuring the circulating lymphocytes after oral administration of 3 to 30 mg/kg of a compound of Formula (I) to normotensive male Wistar rats. The animals are housed in climate-controlled conditions with a 12 h-light/dark cycle, and have free access to normal rat chow and drinking water. […] Full blood is subjected to hematology using Advia Hematology system (Bayer Diagnostics, Zurich, Switzerland).
All data are presented as mean±SEM. Statistical analyses are performed by analysis of variance (ANOVA) using Statistica (StatSoft) and the Student-Newman-Keuls procedure for multiple comparisons. The null hypothesis is rejected when p<0.05.

The next series relates to rat trachea rings. In words: Measurement of isometric force development: constriction of rat trachea rings. The settings on record: for activation at 0.1 µM / activation at 1 µM: Rattus norvegicus; for activation at 0.1 µM: read-out: % trachea constriction at 0.1 μM; for activation at 1 µM: read-out: % trachea constriction at 1 μM; for concentration at which significant (or full) rat trachea constriction is shown: rat trachea rings.

[2] abbreviates: in % of the constriction induced by 50 mM KCl.

T1 sequence (P21453 whole entry): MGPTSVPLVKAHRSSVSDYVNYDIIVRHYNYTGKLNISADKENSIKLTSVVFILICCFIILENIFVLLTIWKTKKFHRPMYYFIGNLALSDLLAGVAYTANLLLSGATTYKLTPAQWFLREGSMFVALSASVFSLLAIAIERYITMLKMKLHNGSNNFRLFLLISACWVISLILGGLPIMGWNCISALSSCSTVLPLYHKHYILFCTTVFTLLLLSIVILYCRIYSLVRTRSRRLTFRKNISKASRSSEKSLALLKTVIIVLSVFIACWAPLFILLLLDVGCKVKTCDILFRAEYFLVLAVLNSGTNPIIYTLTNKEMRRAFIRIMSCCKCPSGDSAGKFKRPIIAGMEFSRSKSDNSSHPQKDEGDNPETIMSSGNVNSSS
Procedure for rat trachea rings: Measurement of Isometric Force Development
Female Wistar rats are euthanized by exposure to CO2. The tracheae are excised and rings from the lower segments are prepared. […] A resting force of 2 g (20 mN) is applied to the ring preparation, and changes in force generation are measured using an isometric force recorder (EMKA Technologies Inc., Paris, France). Viability of rings is assessed by exposure to a depolarizing concentration of KCl (50 mM). Contraction of trachea is expressed as a percentage of the response to KCl.
The compounds are prepared as stock solutions of 0.3 mM in pure DMSO.

Take `CCc1cc(-c2noc(-c3cc(OC)nc(C4CCCC4)c3)n2)cc(C)c1OCC(=O)O` [Example 5, 2-(4-(5-(2-Cyclopentyl-6-methoxypyridin-4-yl)-1,2,4-oxadiazol-3-yl)-2-ethyl-6-methylphenoxy)acetic acid]: the EC50 (usually the midpoint of the concentration-response curve) in series [1] was determined as 1.6 nM. In the series with circulating lymphocytes, the change in vivo at 10 mg/kg was -35%. Also, in the series on rat trachea rings (setting [2]), the “% trachea constriction at 10 nM” value is given as under 5%, the “% trachea constriction at 30 nM” value is reported as under 5% and the “% trachea constriction at 0.3 μM” value was determined as 84%. Also, in the series on rat trachea rings, the activation at 0.1 µM came out at 66% and the activation at 1 µM was found to be 124%.
`CCc1cc(-c2noc(-c3cc(OC)nc(C4CCCC4)c3)n2)cc(C)c1OCCNCC(=O)O` [Example 7, 2-((2-(4-(5-(2-Cyclopentyl-6-methoxypyridin-4-yl)-1,2,4-oxadiazol-3-yl)-2-ethyl-6-methylphenoxy)ethyl)amino)acetic acid] came in with a concentration for a half-maximal effect (EC50) in series [1] of 1.5 nM. Also, the change in vivo at 10 mg/kg in the series on circulating lymphocytes is -70%. For the same molecule, in the series on rat trachea rings (setting [2]), the “% trachea constriction at 10 nM” value is listed as under 5% and the “% trachea constriction at 0.3 μM” value is under 5%. In the series on rat trachea rings, the activation at 0.1 µM was under 5%, the activation at 1 µM is 68% and the “concentration at which significant (or full) rat trachea constriction is shown” value is 1 µM.
Take `CCc1cc(-c2noc(-c3cc(OC)nc(C4CCCC4)c3)n2)cc(C)c1OCC(=O)NCCO` [Example 13, 2-(4-(5-(2-Cyclopentyl-6-methoxypyridin-4-yl)-1,2,4-oxadiazol-3-yl)-2-ethyl-6-methylphenoxy)-N-(2-hydroxyethyl)acetamide]: the EC50 in series [1] was determined as 2.4 nM. The change in vivo at 10 mg/kg in the series with circulating lymphocytes was -77%. For the same molecule, the “% trachea constriction at 10 μM” value with rat trachea rings (setting [2]) is listed as under 5%. Also, in the series on rat trachea rings, the activation at 1 µM is under 5%.
On to `CCc1cc(-c2noc(-c3cc(OC)nc(C4CCCC4)c3)n2)cc(C)c1OCCNCCC(=O)O` [Example 1, 3-((2-(4-(5-(2-Cyclopentyl-6-methoxypyridin-4-yl)-1,2,4-oxadiazol-3-yl)-2-ethyl-6-methylphenoxy)ethyl)amino)propanoic acid], for which, in series [1], the EC50 amounted to 0.04 nM. Moreover, the change in vivo at 10 mg/kg in the series on circulating lymphocytes was -69%. For the same molecule, the “% trachea constriction at 0.3 μM” value in the series on rat trachea rings (setting [2]) was 53%. In addition, in the series on rat trachea rings, the activation at 0.1 µM is under 5% and the activation at 1 µM worked out at 96%.
`CCc1cc(-c2noc(-c3cc(OC)nc(C4CCCC4)c3)n2)cc(C)c1OC[C@@H](O)CNCCO` [Example 3] came in with a 50% effective concentration (EC50) in series [1] of 8.3 nM. Besides, the change in vivo at 10 mg/kg with circulating lymphocytes is -25%. In the series with rat trachea rings (setting [2]), the “% trachea constriction at 3 μM” value is recorded as under 5% and the “% trachea constriction at 10 μM” value is under 5%. Further, in the series on rat trachea rings (30 μM, in % of the constriction induced by 50 mM KCl), the “% trachea constriction at 30 μM” value is under 5%. Besides, the activation at 1 µM in the series with rat trachea rings is under 5%.
Turning to `COc1cc(-c2nc(-c3cc(Cl)c(OCCCC(=O)O)c(OC)c3)no2)cc(C2CCCC2)n1` [Example 35, 4-(2-Chloro-4-(5-(2-cyclopentyl-6-methoxypyridin-4-yl)-1,2,4-oxadiazol-3-yl)-6-methoxyphenoxy)butanoic acid], in series [1], the EC50 worked out at 0.627 nM. The change in vivo at 10 mg/kg with circulating lymphocytes was -71%. Besides, in the series on rat trachea rings (setting [2]), the “% trachea constriction at 10 nM” value is on record as under 5% and the “% trachea constriction at 30 nM” value was under 5%. Further, in the series on rat trachea rings, the activation at 0.1 µM was found to be 86% and the activation at 1 µM amounted to 108%.
`COc1cc(-c2nc(-c3cc(C)c(OCC(=O)O)c(Cl)c3)no2)cc(C2CCCC2)n1` [Example 41, 2-(2-Chloro-4-(5-(2-cyclopentyl-6-methoxypyridin-4-yl)-1,2,4-oxadiazol-3-yl)-6-methylphenoxy)acetic acid] registered an EC50 in series [1] of 1.1 nM. Further, in the series on circulating lymphocytes, the change in vivo at 10 mg/kg was -49%. Besides, in the series with rat trachea rings (setting [2]), the “% trachea constriction at 10 nM” value was under 5% and the “% trachea constriction at 30 nM” value stood at 10%. In addition, in the series on rat trachea rings, the activation at 0.1 µM came to 56% and the activation at 1 µM is 120%.
`COc1cc(-c2nc(-c3cc(C)c(OCCNCCO)c(Cl)c3)no2)cc(C2CCCC2)n1` [Example 45, 2-((2-(2-Chloro-4-(5-(2-cyclopentyl-6-methoxypyridin-4-yl)-1,2,4-oxadiazol-3-yl)-6-methylphenoxy)ethyl)amino)ethanol] returned an EC50 in series [1] of 1.7 nM. Also, the change in vivo at 10 mg/kg in the series on circulating lymphocytes is -72%. In the series on rat trachea rings (setting [2]), the “% trachea constriction at 3 μM” value is reported as under 5% and the “% trachea constriction at 10 μM” value was 52%. In addition, in the series on rat trachea rings, the activation at 1 µM is under 5% and the “concentration at which significant (or full) rat trachea constriction is shown” value was determined as 10 µM.
In turn, `CCc1cc(-c2nnc(-c3cc(OC)nc(C4CCCC4)c3)o2)cc(C)c1OCCNCCC(=O)O` [Example 62, 3-((2-(4-(5-(2-Cyclopentyl-6-methoxypyridin-4-yl)-1,3,4-oxadiazol-2-yl)-2-ethyl-6-methylphenoxy)ethyl)amino)propanoic acid] came in with an EC50 in series [1] of 0.2 nM. The change in vivo at 10 mg/kg with circulating lymphocytes is -63%.
Turning to `COc1cc(-c2nc(-c3cc(C)c(OCC(=O)NCCO)c(Cl)c3)no2)cc(C2CCCC2)n1` [Example 42, 2-(2-Chloro-4-(5-(2-cyclopentyl-6-methoxypyridin-4-yl)-1,2,4-oxadiazol-3-yl)-6-methyl-phenoxy)-N-(2-hydroxyethyl)acetamide], the half-maximal effective concentration (EC50) in series [1] was 0.4 nM. In addition, the change in vivo at 10 mg/kg in the series on circulating lymphocytes is -75%.
Turning to `CCc1cc(-c2noc(-c3cc(OC)nc(C4CCCC4)c3)n2)cc(C)c1OCCCN(C)C(=O)CC(=O)O` [Example 33, 3-((3-(4-(5-(2-Cyclopentyl-6-methoxypyridin-4-yl)-1,2,4-oxadiazol-3-yl)-2-ethyl-6-methylphenoxy)propyl)(methyl)amino)-3-oxopropanoic acid], in series [1], a half-maximal effect (EC50) was put at 0.501 nM. Moreover, the change in vivo at 10 mg/kg in the series with circulating lymphocytes was -78%.
Consider `CCc1cc(-c2noc(-c3cc(OC)nc(C4CCCC4)c3)n2)cc(C)c1OCCN1CCC(C(=O)O)C1` (racemic) [Example 8, rac-1-(2-(4-(5-(2-Cyclopentyl-6-methoxypyridin-4-yl)-1,2,4-oxadiazol-3-yl)-2-ethyl-6-methylphenoxy)ethyl)pyrrolidine-3-carboxylic acid], for which it took 0.3 nM to reach a half-maximal effect in series [1] (EC50). Further, in the series on circulating lymphocytes, the change in vivo at 10 mg/kg was -66%.
Regarding `CCc1cc(-c2noc(-c3cc(OC)nc(C4CCCC4)c3)n2)cc(C)c1OCCCN(C)CCC(=O)O` [Example 21, 3-((3-(4-(5-(2-Cyclopentyl-6-methoxypyridin-4-yl)-1,2,4-oxadiazol-3-yl)-2-ethyl-6-methylphenoxy)propyl)(methyl)amino)propanoic acid], in series [1], the midpoint of the response, the EC50, lay at 0.659 nM. In the series on circulating lymphocytes, the change in vivo at 10 mg/kg was -74%.
`CCc1cc(-c2noc(-c3cc(OC)nc(C4CCCC4)c3)n2)cc(C)c1OCCNCC(O)CO` (racemic) [Example 27, rac-3-((2-(4-(5-(2-Cyclopentyl-6-methoxypyridin-4-yl)-1,2,4-oxadiazol-3-yl)-2-ethyl-6-methylphenoxy)ethyl)amino)propane-1,2-diol] came in with an EC50 in series [1] of 10.3 nM. In addition, in the series on circulating lymphocytes, the change in vivo at 10 mg/kg was -42%.
In series [1], `CCc1cc(-c2nc(-c3cc(OC)nc(C4CCCC4)c3)no2)cc(C)c1OCCCNCC(=O)O` [Example 59, 2-((3-(4-(3-(2-Cyclopentyl-6-methoxypyridin-4-yl)-1,2,4-oxadiazol-5-yl)-2-ethyl-6-methylphenoxy)propyl)amino)acetic acid] displayed an EC50 of 2.7 nM. Besides, the change in vivo at 10 mg/kg in the series on circulating lymphocytes was -82%.
